System: 695427-040-R-J1-PDC complex spheroids, viability percent T/C
Assay: Anticancer human tumor 695427-040-R-J1-PDC patient-derived colon adenocarcinoma cell line growth inhibition [GQUAD]
Settings: for IC50: curve of first compound; for viability, T/C: stronger effect = lower value
Method in brief: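 Tumor cells were grown as complex spheroids with HUVEC endothelial cells and mesenchymal stem cells as stroma. G-quadruplex stabilizers were combined with targeted agents over half-log dilutions from near the clinical Cmax, or from 10 microM.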

[1] = second compound 0.0316 µM, first compound 0.0316 µM
[2] = second compound 0.0316 µM, first compound 0.1 µM
[3] = second compound 0.0316 µM, first compound 0.316 µM
[4] = second compound 0.0316 µM, first compound 1 µM
[5] = second compound 0.0316 µM, first compound 3.16 µM
[6] = second compound 0.0316 µM, first compound 10 µM
[7] = second compound 0.1 µM, first compound 0.0316 µM
[8] = second compound 0.1 µM, first compound 0.1 µM
[9] = second compound 0.1 µM, first compound 0.316 µM
[10] = second compound 0.1 µM, first compound 1 µM
[11] = second compound 0.1 µM, first compound 3.16 µM
[12] = second compound 0.1 µM, first compound 10 µM
[13] = second compound 0.316 µM, first compound 0.0316 µM
[14] = second compound 0.316 µM, first compound 0.1 µM
[15] = second compound 0.316 µM, first compound 0.316 µM
[16] = second compound 0.316 µM, first compound 1 µM
[17] = second compound 0.316 µM, first compound 3.16 µM
[18] = second compound 0.316 µM, first compound 10 µM
[19] = second compound 1 µM, first compound 0.0316 µM
[20] = second compound 1 µM, first compound 0.1 µM
[21] = second compound 1 µM, first compound 0.316 µM
[22] = second compound 1 µM, first compound 1 µM
[23] = second compound 1 µM, first compound 3.16 µM
[24] = second compound 1 µM, first compound 10 µM
[25] = second compound 3.16 µM, first compound 0.0316 µM
[26] = second compound 3.16 µM, first compound 0.1 µM
[27] = second compound 3.16 µM, first compound 0.316 µM
[28] = second compound 3.16 µM, first compound 1 µM
[29] = second compound 3.16 µM, first compound 3.16 µM
[30] = second compound 3.16 µM, first compound 10 µM
[31] = second compound 10 µM, first compound 0.0316 µM
[32] = second compound 10 µM, first compound 0.1 µM
[33] = second compound 10 µM, first compound 0.316 µM
[34] = second compound 10 µM, first compound 1 µM
[35] = second compound 10 µM, first compound 3.16 µM
[36] = second compound 10 µM, first compound 10 µM
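Further: spheroids exposed to compounds for seven days before readout.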

COc1cc(C2c3cc4c(cc3C(OC3OC5COC(C)OC5C(O)C3O)C3COC(=O)C23)OCO4)cc(OC)c1O (stereo unspecified) + Cc1[nH]c2ccc(F)cc2c1-c1nc2c3cccnc3c3ncccc3c2[nH]1
IC50 (second compound 0.0316 µM): > 10 µM
IC50 (second compound 0.1 µM): > 10 µM
IC50 (second compound 0.316 µM): > 10 µM
IC50 (second compound 1 µM): > 10 µM
IC50 (second compound 3.16 µM): > 10 µM
IC50 (second compound 10 µM): > 10 µM
viability, T/C [1]: 118%
viability, T/C [2]: 90.7%
viability, T/C [3]: 105%
viability, T/C [4]: 102%
viability, T/C [5]: 87.4%
viability, T/C [6]: 78.1%
viability, T/C [7]: 110%
viability, T/C [8]: 92.6%
viability, T/C [9]: 113%
viability, T/C [10]: 68.8%
viability, T/C [11]: 84.1%
viability, T/C [12]: 76.7%
viability, T/C [13]: 112%
viability, T/C [14]: 83.3%
viability, T/C [15]: 80.3%
viability, T/C [16]: 87.3%
viability, T/C [17]: 85.8%
viability, T/C [18]: 74.1%
viability, T/C [19]: 91.9%
viability, T/C [20]: 95.4%
viability, T/C [21]: 90.5%
viability, T/C [22]: 87.6%
viability, T/C [23]: 91.5%
viability, T/C [24]: 71.2%
viability, T/C [25]: 81.2%
viability, T/C [26]: 85.9%
viability, T/C [27]: 82.7%
viability, T/C [28]: 82.7%
viability, T/C [29]: 81.3%
viability, T/C [30]: 69%
viability, T/C [31]: 65.9%
viability, T/C [32]: 74.3%
viability, T/C [33]: 87%
viability, T/C [34]: 83.8%
viability, T/C [35]: 68.7%
viability, T/C [36]: 64.3%

COc1cccc2c1C(=O)c1c(O)c3c(c(O)c1C2=O)CC(O)(C(=O)CO)CC3OC1CC(N)C(O)C(C)O1 (stereo unspecified) + Cc1[nH]c2ccc(F)cc2c1-c1nc2c3cccnc3c3ncccc3c2[nH]1
IC50 (second compound 0.0316 µM): > 10 µM
IC50 (second compound 0.1 µM): > 10 µM
IC50 (second compound 0.316 µM): > 10 µM
IC50 (second compound 1 µM): > 10 µM
IC50 (second compound 3.16 µM): 4.85 µM
IC50 (second compound 10 µM): 5.56 µM
viability, T/C [1]: 98.6%
viability, T/C [2]: 88.4%
viability, T/C [3]: 96.9%
viability, T/C [4]: 87.1%
viability, T/C [5]: 60.6%
viability, T/C [6]: 50.7%
viability, T/C [7]: 104%
viability, T/C [8]: 98.8%
viability, T/C [9]: 91.3%
viability, T/C [10]: 71.9%
viability, T/C [11]: 74.4%
viability, T/C [12]: 48.9%
viability, T/C [13]: 95.2%
viability, T/C [14]: 77.9%
viability, T/C [15]: 87.1%
viability, T/C [16]: 73.8%
viability, T/C [17]: 71.5%
viability, T/C [18]: 49.6%
viability, T/C [19]: 83%
viability, T/C [20]: 92.4%
viability, T/C [21]: 78.8%
viability, T/C [22]: 72.5%
viability, T/C [23]: 71.2%
viability, T/C [24]: 49.6%
viability, T/C [25]: 59.6%
viability, T/C [26]: 86.8%
viability, T/C [27]: 70.4%
viability, T/C [28]: 59.4%
viability, T/C [29]: 56.8%
viability, T/C [30]: 42.5%
viability, T/C [31]: 65.9%
viability, T/C [32]: 80.1%
viability, T/C [33]: 65%
viability, T/C [34]: 70.9%
viability, T/C [35]: 62.2%
viability, T/C [36]: 37%

Nc1ccn(C2OC(CO)C(O)C2(F)F)c(=O)n1 (stereo unspecified) + Cc1[nH]c2ccc(F)cc2c1-c1nc2c3cccnc3c3ncccc3c2[nH]1
IC50 (second compound 0.0316 µM): > 10 µM
IC50 (second compound 0.1 µM): > 10 µM
IC50 (second compound 0.316 µM): > 10 µM
IC50 (second compound 1 µM): > 10 µM
IC50 (second compound 3.16 µM): 1.65 µM
IC50 (second compound 10 µM): 1.44 µM
viability, T/C [1]: 78.4%
viability, T/C [2]: 74.8%
viability, T/C [3]: 71.3%
viability, T/C [4]: 54.6%
viability, T/C [5]: 56.4%
viability, T/C [6]: 46.7%
viability, T/C [7]: 92.2%
viability, T/C [8]: 75.1%
viability, T/C [9]: 59%
viability, T/C [10]: 54.1%
viability, T/C [11]: 60.5%
viability, T/C [12]: 52.1%
viability, T/C [13]: 86%
viability, T/C [14]: 70.8%
viability, T/C [15]: 64.4%
viability, T/C [16]: 55.1%
viability, T/C [17]: 66.6%
viability, T/C [18]: 46.5%
viability, T/C [19]: 87.3%
viability, T/C [20]: 64.6%
viability, T/C [21]: 59.2%
viability, T/C [22]: 57.9%
viability, T/C [23]: 63.1%
viability, T/C [24]: 48.8%
viability, T/C [25]: 67.6%
viability, T/C [26]: 55.4%
viability, T/C [27]: 55.5%
viability, T/C [28]: 53.3%
viability, T/C [29]: 51.4%
viability, T/C [30]: 39.8%
viability, T/C [31]: 63.2%
viability, T/C [32]: 59.4%
viability, T/C [33]: 57.8%
viability, T/C [34]: 51%
viability, T/C [35]: 43%
viability, T/C [36]: 47.4%

— PubChem BioAssay AID2060492 (Molecular Pharmacology Branch, DTP, NCI, 2025)
